Results from patent US7041638B2, “Surfactant prevention of vaginitis and lung complications from cancer chemotherapy” (The Penn State Research Foundation, priority 2001, dated 2006).
Like-named read-outs stand apart in the source and are kept apart here.

Key:
Format in all cases: cell-based, human
THP-1 cells [1] = experiment: Cytokine production by differentiated THP-1 cells after SP-A, bleomycin or Ara-C (ELISA); conditions: for TNF-α level in culture medium: mean±SEM, FIG. 3A
Procedure: (§1) The THP-1 cell line was obtained from the American Type Culture Collection. Cells were grown in RPMI 1640 medium (Sigma) with 0.05 mM 2-mercaptoethanol containing 10% fetal calf serum (FCS; Summit Biotechnology) at 37° C. in an atmosphere of 5% CO2. The cells were split periodically and used at passages 8–15 in the various experiments. After differentiation with 10^−8 M Vitamin D3 for 72 h, cells were pelleted and washed with cold PBS. The cell pellet was then resuspended in complete RPMI 1640 medium with 10% FCS at a density of 2×10^6 cells/ml in 24-well culture plates, and exposed to bleomycin and SP-A. Cell viability was determined by trypan blue exclusion. […] Incubations were terminated by pelleting the cells. Supernatants and/or cell pellet were stored at −80° C. until assayed.
(§2) After differentiation with 10^−8 M of vitamin D3 for 72 h, THP-1 cells were pelleted and washed as described above. Cells at a density of 2×10^6 cells/ml were incubated at 24 well culture plates. For dose-response study, cells were stimulated with bleomycin at concentrations ranging from 0–100 mU/ml. Time-dependent secretion of cytokines following bleomycin treatment was studied from 0–24 h with 5 and 50 mU/ml of bleomycin. In experiments where the combined effects of SP-A and bleomycin were examined, SP-A (10 μg/ml) and bleomycin (5 or 50 mU/ml) were added to cells simultaneously, unless otherwise noted. After treatment, the culture medium was collected at 4 h or 6 h for the ELISA assay of cytokine production and cells were harvested at 2 h or 4 h for cytokine mRNA analysis.
Cytosine arabinoside (Ara-C, Cytosar-U, Pharmacia & Upjohn) was included in some experiments to confirm the specificity of the effect of bleomycin on proinflammatory cytokine production by THP-1 cells. Ara-C is another antineoplastic agent with known cytotoxicity. […] Ara-C, at concentrations ranging from 0.1 to 5 mM in culture medium, was used for evaluating the effect of Ara-C on TNF-α. The conditions employed in the Ara-C experiments were the same as those in bleomycin studies except that only a 4 h time point was done.
The ELISA assays for TNF-α, IL-8, and IL-1β (OptEIA Human ELISA Sets, Pharmingen) were performed according to the instructions recommended by the manufacturer. The ELISA kits were capable of measuring levels of 7.8–500 pg/ml for TNF-α, 6.2–400 pg/ml for IL-8 and 20–1000 pg/ml for IL-1β. A reference curve for each of these cytokines was obtained by plotting the concentration of several dilutions of standard protein versus the corresponding absorbance.

THP-1 cells [2] = experiment: Cell viability by trypan blue exclusion
Procedure: as §1

THP-1 cells [3] = experiment: Cytokine mRNA in THP-1 cells by ribonuclease protection assay (RPA); conditions: for relative intensity of TNF-α mRNA / IL-8 mRNA level: SP-A 10 μg/ml and/or bleomycin 5 mU/ml, normalized to L32; for relative intensity of TNF-α mRNA: FIG. 4A; for IL-8 mRNA level: 4 h, FIG. 4B
Procedure: as §2
Total RNA was isolated from THP-1 cells at 2 h or 4 h after treatment by using Rneasy Mini Kits (QIAGEN) according to the protocol of the RNeasy Mini Handbook. Cytokine mRNA quantification was performed by ribonuclease protection assay (RPA). RiboQuant™ Ribonuclease RPA Starter Package and a Customized Human Template Set (Pharmingen) were used to analyze TNF-α, IL-1β, and IL-8 mRNA in one assay. The customized template set contains DNA templates that can be used for T7 RNA polymerase-directed synthesis of α-^32P-UTP-labeled, anti-sense RNA probes. These can be hybridized to TNF-α, IL-1β, and IL-8 mRNA. Templates for the L32 and GAPDH housekeeping genes were also included to allow for normalization of sampling or technical error. Aliquots of 2 μg of total RNA were hybridized with radiolabeled probes at 56° C. for 16 h. RNase treatment followed, resulting in degradation of single-stranded RNA and free probes. After inactivation and precipitation, protected probes were resolved by a 5% polyacrylamide-urea sequence gel electrophoresis and visualized by autoradiography. Densities of the protected bands were quantified by soft laser densitometry. The mRNA level is expressed as the ratio of the densitometric value of each cytokine mRNA to that of the L32 or GAPDH mRNA.

[4] = SP-A 10 μg/ml and/or bleomycin 5 mU/ml, 4 h

Compound | TNF-α level after Ara-C treatment versus control (THP-1 cells [1]; Ara-C 0.1 to 5 mM, 4 h, FIG. 1D) | effect on the viability of THP-1 cells (THP-1 cells [2]) | relative intensity of TNF-α mRNA (THP-1 cells [3]; 2 h) | IL-8 mRNA level (THP-1 cells [3]) | TNF-α level in culture medium (THP-1 cells [1]; [4]) [pg/mL] | effect on the viability of THP-1 cells (THP-1 cells [2]; conditions employed in this study) | relative intensity of IL-1β mRNA (THP-1 cells [3]; 2 h, SP-A 10 μg/ml, bleomycin 5 mU/ml, LPS 0.1 ng/ml) | lowest bleomycin concentration that increased TNF-α level (THP-1 cells [1]; 4 h, dose range 0–100 mU/ml, FIG. 1A) [mU/ml] | lowest bleomycin concentration that increased IL-8 level (THP-1 cells [1]; 4 h, dose range 0–100 mU/ml, FIG. 1B) [mU/ml] | bleomycin concentration needed to increase IL-1β level significantly (THP-1 cells [1]; 6 h, dose range 0–100 mU/ml, FIG. 1C) [mU/ml] | time to maximum TNF-α level (THP-1 cells [1]; bleomycin 5, 50 mU/ml, depending on dose, FIG. 2A) [h] | time at which increase of TNF-α levels was detected (THP-1 cells [1]; bleomycin 5, 50 mU/ml, 0–24 h, FIG. 2A) [h] | time at which TNF-α returned to background levels (THP-1 cells [1]; bleomycin 5, 50 mU/ml, FIG. 2A) [h] | time to maximal IL-8 level (THP-1 cells [1]; bleomycin 5, 50 mU/ml, FIG. 2B) | time to peak IL-1β level (THP-1 cells [1]; bleomycin 5, 50 mU/ml, FIG. 2C) [h] | TNF-α level in culture medium (THP-1 cells [1]; bleomycin 50 mU/ml with or without SP-A 10 μg/ml, 4 h) [pg/mL]
Nc1ccn([C@@H]2O[C@H](CO)[C@@H](O)[C@@H]2O)c(=O)n1 [Ara-C, Cytosine arabinoside] | did not differ from that of control |  |  |  |  |  |  |  |  |  |  |  |  |  |  | 
SP-A: native human surfactant protein A purified from bronchoalveolar lavage of alveolar proteinosis patients |  | neither bleomycin nor SP-A appeared to have any effect | 0.51±0.27 | 1.26±0.14 | 86.6 ± 11.5 |  |  |  |  |  |  |  |  |  |  | 
bleomycin |  |  | 0.74±0.20 | 1.02±0.16 | 45.9 ± 10.6 | neither bleomycin nor SP-A appeared to have any effect | Very low levels | 0.5 | 0.5 | 50 | 4 to 6 | 3 | 24 | around 5 h | 10 | 82.1 ± 17.3
